Measured values reported in ChEMBL document CHEMBL3580564, “Semisynthetic Studies on and Biological Evaluation of N-Methyllaurotetanine Analogues as Ligands for 5-HT Receptors” (J Nat Prod, 2015).

Tests used:
[1] = biological target: 5-hydroxytryptamine receptor 7 (Homo sapiens, UniProt P34969); assay: Displacement of [3H]LSD from human recombinant 5-HT7 receptor expressed in HEK cell membranes by radioligand binding assay; parameters: species or system HEK293
Homo sapiens [2] = species on record: Homo sapiens; assay: Selectivity index, ratio of Ki for human recombinant 5-HT1A receptor to Ki for human recombinant 5-HT7 receptor
[3] = biological target: T1, 5-hydroxytryptamine receptor 1A (Homo sapiens, UniProt P08908); assay: Displacement of [3H]Way100635 from human recombinant 5-HT1A receptor expressed in CHO cell membranes by radioligand binding assay
T1 sequence (P08908 whole entry): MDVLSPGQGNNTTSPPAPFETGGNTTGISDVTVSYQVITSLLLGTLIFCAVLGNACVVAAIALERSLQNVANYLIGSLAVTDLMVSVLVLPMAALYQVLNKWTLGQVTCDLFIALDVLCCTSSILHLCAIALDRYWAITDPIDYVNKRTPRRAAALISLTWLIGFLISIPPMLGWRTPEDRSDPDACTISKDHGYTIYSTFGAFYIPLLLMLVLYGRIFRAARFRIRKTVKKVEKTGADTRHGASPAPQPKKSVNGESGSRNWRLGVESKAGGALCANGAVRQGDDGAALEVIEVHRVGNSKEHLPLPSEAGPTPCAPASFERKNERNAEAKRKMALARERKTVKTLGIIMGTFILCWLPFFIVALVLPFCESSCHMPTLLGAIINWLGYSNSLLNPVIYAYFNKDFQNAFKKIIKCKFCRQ

[4] = biological target: 5-hydroxytryptamine receptor 2A (Homo sapiens, UniProt P28223); assay: Displacement of [3H]ketanserin from human recombinant 5-HT2A receptor expressed in HEKT cell membranes by radioligand binding assay; type: cell-based
Homo sapiens [5] = species on record: Homo sapiens; assay: Selectivity index, ratio of Ki for human recombinant 5-HT2A receptor to Ki for human recombinant 5-HT7 receptor
[6] = biological target: T2, 5-hydroxytryptamine receptor 1A (Homo sapiens) (UniProt P08908); assay: Potency index, ratio of Ki for N-Methyllaurotetanine to Ki for test compound against human recombinant 5-HT1A receptor expressed in CHO cell membranes by radioligand binding assay
T2 sequence (whole entry): T1 sequence (P08908 whole entry)

D(3) dopamine receptor = D(3) dopamine receptor (Homo sapiens, UniProt P35462); assay: Displacement of [3H]N-methylspiperone from human recombinant dopamine D3 receptor expressed in HEKT cell membranes by radioligand binding assay
[7] = biological target: Muscarinic acetylcholine receptor M2 (Homo sapiens) (UniProt P08172); assay: Displacement of [3H]QNB/[3H]]NMS from human recombinant muscarinic M2 receptor expressed in CHO cell membranes by radioligand binding assay; settings: concentration not given here
[8] = biological target: Alpha-1A adrenergic receptor (Homo sapiens) (UniProt P35348); assay: Displacement of [3H]prazosin from human recombinant adrenergic alpha1A receptor by radioligand binding assay; settings: concentration not given here
[9] = biological target: Alpha-2B adrenergic receptor (Homo sapiens) (UniProt P18089); assay: Displacement of [3H]rauwolscine from human recombinant adrenergic alpha2B receptor expressed in HEKT cell membranes by radioligand binding assay; settings: concentration not given here
[10] = biological target: Alpha-1B adrenergic receptor (Homo sapiens, UniProt P35368); assay: Displacement of [3H]prazosin from human recombinant adrenergic alpha1B receptor expressed in HEKT cell membranes by radioligand binding assay
[11] = biological target: Histamine H1 receptor (Homo sapiens) (UniProt P35367); assay: Displacement of [3H]pyrilamine from human recombinant histamine H1 receptor expressed in HEK cell membranes by radioligand binding assay; settings: HEK293, concentration not given here
[12] = biological target: Translocator protein (Rattus norvegicus) (UniProt P16257); assay: Displacement of [3H]PK11195 from rat brain PBR by radioligand binding assay; settings: concentration not given here
[13] = biological target: Histamine H4 receptor (Homo sapiens) (UniProt Q9H3N8); assay: Displacement of [3H]histamine from human recombinant histamine H4 receptor by radioligand binding assay; settings: concentration not given here
[14] = biological target: Muscarinic acetylcholine receptor M3 (Homo sapiens) (UniProt P20309); assay: Displacement of [3H]QNB/[3H]]NMS from human recombinant muscarinic M3 receptor expressed in CHO cell membranes by radioligand binding assay; settings: concentration not given here
[15] = biological target: D(1B) dopamine receptor (Homo sapiens) (UniProt P21918); assay: Displacement of [3H]SCH23390 from human recombinant dopamine D5 receptor expressed in HEKT cell membranes by radioligand binding assay; settings: concentration not given here
[16] = biological target: 5-hydroxytryptamine receptor 2B (Homo sapiens, UniProt P41595); assay: Displacement of [3H]LSD from human recombinant 5-HT2B receptor expressed in HEK cell membranes by radioligand binding assay; parameters: species or system HEK293
[17] = biological target: Muscarinic acetylcholine receptor M1 (Homo sapiens) (UniProt P11229); assay: Displacement of [3H]QNB/[3H]]NMS from human recombinant muscarinic M1 receptor expressed in CHO cell membranes by radioligand binding assay; settings: concentration not given here
[18] = biological target: Sodium-dependent noradrenaline transporter (Homo sapiens, UniProt P23975); assay: Displacement of [3H]nisoxetine from human recombinant NET expressed in HEK cell membranes by radioligand binding assay; parameters: species or system HEK293
[19] = biological target: Delta-type opioid receptor (Homo sapiens) (UniProt P41143); assay: Displacement of [3H]DADLE from human recombinant DOR expressed in HEK cell membranes by radioligand binding assay; settings: HEK293, concentration not given here
[20] = biological target: D(4) dopamine receptor (Homo sapiens) (UniProt P21917); assay: Displacement of [3H]N-methylspiperone from human recombinant dopamine D4 receptor by radioligand binding assay; settings: concentration not given here
Rattus norvegicus [21] = species on record: Rattus norvegicus; assay: Displacement of [3H]muscimol from rat brain GABAA receptor by radioligand binding assay; settings: concentration not given here
[22] = biological target: 5-hydroxytryptamine receptor 5A (Homo sapiens, UniProt P47898); assay: Displacement of [3H]LSD from human recombinant 5-HT5A receptor expressed in Flp-In CHO cell membranes by radioligand binding assay
Rattus norvegicus [23] = species on record: Rattus norvegicus; assay: Displacement of [3H]flunitrazepam from rat brain benzodiazepine receptor by radioligand binding assay; settings: concentration not given here
[24] = biological target: Alpha-2C adrenergic receptor (Homo sapiens, UniProt P18825); assay: Displacement of [3H]rauwolscine from human recombinant adrenergic alpha2C receptor expressed in MDCK cell membranes by radioligand binding assay
[25] = biological target: 5-hydroxytryptamine receptor 6 (Homo sapiens, UniProt P50406); assay: Displacement of [3H]LSD from human recombinant 5-HT6 receptor expressed in HEK cell membranes by radioligand binding assay; parameters: species or system HEK293
[26] = biological target: Histamine H3 receptor (Homo sapiens) (UniProt Q9Y5N1); assay: Displacement of [3H]alpha-methylhistamine from human recombinant histamine H3 receptor expressed in HEKFlp-In cell membranes by radioligand binding assay; settings: concentration not given here
[27] = biological target: Sodium-dependent serotonin transporter (Homo sapiens, UniProt P31645); assay: Displacement of [3H]citalopram from human recombinant SERT expressed in HEK cell membranes by radioligand binding assay; parameters: species or system HEK293
[28] = biological target: Muscarinic acetylcholine receptor M5 (Homo sapiens) (UniProt P08912); assay: Displacement of [3H]QNB/[3H]]NMS from human recombinant muscarinic M5 receptor expressed in CHO cell membranes by radioligand binding assay; settings: concentration not given here
[29] = biological target: Alpha-1D adrenergic receptor (Homo sapiens) (UniProt P25100); assay: Displacement of [3H]prazosin from human recombinant adrenergic alpha1D receptor by radioligand binding assay; settings: concentration not given here
[30] = biological target: Beta-2 adrenergic receptor (Homo sapiens, UniProt P07550); assay: Displacement of [3H]CGP12177 from human recombinant adrenergic beta2 receptor expressed in CHO Flp-In cell membranes by radioligand binding assay
[31] = biological target: 5-hydroxytryptamine receptor 1E (Homo sapiens) (UniProt P28566); assay: Displacement of [3H]5-HT from human recombinant 5-HT1E receptor expressed in HEK cell membranes by radioligand binding assay; settings: HEK293, concentration not given here
[32] = biological target: D(2) dopamine receptor (Homo sapiens) (UniProt P14416); assay: Displacement of [3H]N-methylspiperone from human recombinant dopamine D2 receptor expressed in fibroblasts cell membranes by radioligand binding assay; settings: Fibroblast, concentration not given here
[33] = biological target: 5-hydroxytryptamine receptor 2C (Homo sapiens, UniProt P28335); assay: Displacement of [3H]mesulergine from human recombinant 5-HT2C receptor expressed in Flp-IN HEK cell membranes by radioligand binding assay; parameters: species or system HEK293
[34] = biological target: Kappa-type opioid receptor (Homo sapiens) (UniProt P41145); assay: Displacement of [3H]U69593 from human recombinant KOR expressed in HEK cell membranes by radioligand binding assay; settings: HEK293, concentration not given here
[35] = biological target: Muscarinic acetylcholine receptor M4 (Homo sapiens) (UniProt P08173); assay: Displacement of [3H]QNB/[3H]]NMS from human recombinant muscarinic M4 receptor expressed in CHO cell membranes by radioligand binding assay; settings: concentration not given here
Sigma 2 receptor = assay: Displacement of [3H]DTG from human recombinant sigma2 receptor by radioligand binding assay; settings: concentration not given here
[36] = biological target: Sigma non-opioid intracellular receptor 1 (Cavia porcellus) (UniProt Q60492); assay: Binding affinity to guinea pig sigma1 receptor by radioligand binding assay; settings: concentration not given here
D(1A) dopamine receptor = D(1A) dopamine receptor (Homo sapiens, UniProt P21728); assay: Displacement of [3H]SCH23390 from human recombinant dopamine D1 receptor expressed in HEKT cell membranes by radioligand binding assay
[37] = biological target: Mu-type opioid receptor (Homo sapiens) (UniProt P35372); assay: Displacement of [3H]DAMGO from human recombinant MOR expressed in HEK cell membranes by radioligand binding assay; settings: HEK293, concentration not given here
[38] = biological target: Sodium-dependent dopamine transporter (Homo sapiens, UniProt Q01959); assay: Displacement of [3H]WIN35428 from human recombinant DAT expressed in HEK cell membranes by radioligand binding assay; parameters: species or system HEK293
[39] = biological target: 5-hydroxytryptamine receptor 3A (Homo sapiens) (UniProt P46098); assay: Displacement of [3H]GR65630 from human recombinant 5-HT3 receptor expressed in HEKT cell membranes by radioligand binding assay; settings: concentration not given here
5-hydroxytryptamine receptor 3A (Homo sapiens), sequence (P46098 whole entry): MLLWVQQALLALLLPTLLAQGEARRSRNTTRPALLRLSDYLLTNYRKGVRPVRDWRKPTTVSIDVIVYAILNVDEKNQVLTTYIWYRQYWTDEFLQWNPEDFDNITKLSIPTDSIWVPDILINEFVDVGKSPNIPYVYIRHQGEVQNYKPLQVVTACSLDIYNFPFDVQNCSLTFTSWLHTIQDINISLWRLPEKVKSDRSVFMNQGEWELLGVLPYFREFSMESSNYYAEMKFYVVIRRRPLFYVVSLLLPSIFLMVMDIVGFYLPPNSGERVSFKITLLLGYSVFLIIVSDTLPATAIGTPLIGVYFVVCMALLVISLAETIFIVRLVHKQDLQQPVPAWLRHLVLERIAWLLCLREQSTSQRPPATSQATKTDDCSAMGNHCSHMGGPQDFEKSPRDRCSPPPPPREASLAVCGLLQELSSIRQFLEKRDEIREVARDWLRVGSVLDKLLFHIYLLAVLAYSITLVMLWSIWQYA

5-hydroxytryptamine receptor 7, sequence (P34969 whole entry): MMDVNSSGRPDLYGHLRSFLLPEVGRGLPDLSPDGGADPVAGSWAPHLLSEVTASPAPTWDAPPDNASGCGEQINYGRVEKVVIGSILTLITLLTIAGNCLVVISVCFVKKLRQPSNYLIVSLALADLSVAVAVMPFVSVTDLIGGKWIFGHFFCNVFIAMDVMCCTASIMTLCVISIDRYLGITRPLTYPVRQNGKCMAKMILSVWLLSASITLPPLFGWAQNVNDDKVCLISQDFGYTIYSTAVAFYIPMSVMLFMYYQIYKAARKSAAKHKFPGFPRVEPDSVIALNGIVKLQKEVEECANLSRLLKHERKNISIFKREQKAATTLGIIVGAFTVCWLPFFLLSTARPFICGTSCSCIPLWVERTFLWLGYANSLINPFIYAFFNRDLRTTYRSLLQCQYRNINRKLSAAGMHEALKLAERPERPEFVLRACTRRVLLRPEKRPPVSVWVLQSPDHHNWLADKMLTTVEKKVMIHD
5-hydroxytryptamine receptor 2A, sequence (P28223 whole entry): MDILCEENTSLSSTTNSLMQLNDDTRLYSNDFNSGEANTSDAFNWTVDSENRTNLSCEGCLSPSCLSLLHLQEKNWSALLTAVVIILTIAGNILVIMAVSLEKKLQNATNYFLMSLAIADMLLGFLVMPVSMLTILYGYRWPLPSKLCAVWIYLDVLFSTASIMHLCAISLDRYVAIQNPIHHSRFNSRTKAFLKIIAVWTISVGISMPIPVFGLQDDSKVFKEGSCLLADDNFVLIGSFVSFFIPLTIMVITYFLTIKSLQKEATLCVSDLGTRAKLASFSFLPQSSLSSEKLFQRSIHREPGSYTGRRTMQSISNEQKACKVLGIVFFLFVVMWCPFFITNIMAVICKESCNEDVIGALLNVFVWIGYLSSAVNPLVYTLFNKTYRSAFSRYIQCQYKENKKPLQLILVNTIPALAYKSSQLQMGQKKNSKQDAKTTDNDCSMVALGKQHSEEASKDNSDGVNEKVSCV
Sodium-dependent serotonin transporter, sequence (P31645 whole entry): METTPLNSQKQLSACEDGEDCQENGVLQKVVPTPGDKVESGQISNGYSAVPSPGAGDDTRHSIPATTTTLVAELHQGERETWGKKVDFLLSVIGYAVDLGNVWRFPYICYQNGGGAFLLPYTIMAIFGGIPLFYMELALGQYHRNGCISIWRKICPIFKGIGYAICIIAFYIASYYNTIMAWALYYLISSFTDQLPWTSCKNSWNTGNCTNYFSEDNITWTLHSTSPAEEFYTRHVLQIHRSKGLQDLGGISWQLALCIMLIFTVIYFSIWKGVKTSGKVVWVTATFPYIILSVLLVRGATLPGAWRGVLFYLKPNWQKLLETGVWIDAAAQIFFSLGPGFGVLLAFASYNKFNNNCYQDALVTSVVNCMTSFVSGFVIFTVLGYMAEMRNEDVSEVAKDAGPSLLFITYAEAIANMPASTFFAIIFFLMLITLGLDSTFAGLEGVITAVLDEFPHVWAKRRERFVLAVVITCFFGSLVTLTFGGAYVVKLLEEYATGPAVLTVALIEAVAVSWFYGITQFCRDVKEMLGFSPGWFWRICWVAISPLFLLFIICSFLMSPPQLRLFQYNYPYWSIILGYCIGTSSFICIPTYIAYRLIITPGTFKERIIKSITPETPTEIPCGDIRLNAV
Muscarinic acetylcholine receptor M2 (Homo sapiens), sequence (P08172 whole entry): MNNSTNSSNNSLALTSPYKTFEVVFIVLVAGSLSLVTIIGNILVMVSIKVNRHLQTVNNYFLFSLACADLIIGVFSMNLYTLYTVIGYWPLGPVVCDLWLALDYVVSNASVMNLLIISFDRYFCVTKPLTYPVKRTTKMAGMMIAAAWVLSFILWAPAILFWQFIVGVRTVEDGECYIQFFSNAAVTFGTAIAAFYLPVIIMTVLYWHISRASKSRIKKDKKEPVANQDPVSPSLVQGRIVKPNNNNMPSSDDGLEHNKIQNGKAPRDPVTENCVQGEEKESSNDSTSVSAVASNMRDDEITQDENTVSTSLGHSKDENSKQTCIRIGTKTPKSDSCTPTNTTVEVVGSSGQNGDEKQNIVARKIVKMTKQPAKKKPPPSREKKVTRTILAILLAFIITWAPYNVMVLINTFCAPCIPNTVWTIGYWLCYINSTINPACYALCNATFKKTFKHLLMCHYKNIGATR
D(2) dopamine receptor (Homo sapiens), sequence (P14416 whole entry): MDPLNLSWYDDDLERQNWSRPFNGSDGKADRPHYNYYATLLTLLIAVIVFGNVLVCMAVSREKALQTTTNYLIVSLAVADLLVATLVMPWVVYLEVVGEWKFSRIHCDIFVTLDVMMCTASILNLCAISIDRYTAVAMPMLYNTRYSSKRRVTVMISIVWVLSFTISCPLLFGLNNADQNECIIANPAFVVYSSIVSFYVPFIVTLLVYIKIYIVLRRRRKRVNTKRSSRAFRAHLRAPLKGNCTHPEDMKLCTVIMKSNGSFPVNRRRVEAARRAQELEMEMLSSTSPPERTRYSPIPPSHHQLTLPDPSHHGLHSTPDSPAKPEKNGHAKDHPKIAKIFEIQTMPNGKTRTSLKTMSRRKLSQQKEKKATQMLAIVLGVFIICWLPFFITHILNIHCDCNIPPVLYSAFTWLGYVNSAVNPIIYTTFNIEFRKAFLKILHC
5-hydroxytryptamine receptor 1E (Homo sapiens), sequence (P28566 whole entry): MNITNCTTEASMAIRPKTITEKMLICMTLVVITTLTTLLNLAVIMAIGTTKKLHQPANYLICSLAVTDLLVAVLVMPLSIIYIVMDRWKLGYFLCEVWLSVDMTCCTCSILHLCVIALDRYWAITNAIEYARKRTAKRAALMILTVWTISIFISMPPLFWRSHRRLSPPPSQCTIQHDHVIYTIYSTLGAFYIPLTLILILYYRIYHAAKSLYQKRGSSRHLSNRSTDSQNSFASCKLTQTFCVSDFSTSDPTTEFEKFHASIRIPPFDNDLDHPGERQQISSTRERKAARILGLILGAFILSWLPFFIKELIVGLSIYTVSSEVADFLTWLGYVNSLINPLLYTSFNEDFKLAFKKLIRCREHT
Alpha-2C adrenergic receptor, sequence (P18825 whole entry): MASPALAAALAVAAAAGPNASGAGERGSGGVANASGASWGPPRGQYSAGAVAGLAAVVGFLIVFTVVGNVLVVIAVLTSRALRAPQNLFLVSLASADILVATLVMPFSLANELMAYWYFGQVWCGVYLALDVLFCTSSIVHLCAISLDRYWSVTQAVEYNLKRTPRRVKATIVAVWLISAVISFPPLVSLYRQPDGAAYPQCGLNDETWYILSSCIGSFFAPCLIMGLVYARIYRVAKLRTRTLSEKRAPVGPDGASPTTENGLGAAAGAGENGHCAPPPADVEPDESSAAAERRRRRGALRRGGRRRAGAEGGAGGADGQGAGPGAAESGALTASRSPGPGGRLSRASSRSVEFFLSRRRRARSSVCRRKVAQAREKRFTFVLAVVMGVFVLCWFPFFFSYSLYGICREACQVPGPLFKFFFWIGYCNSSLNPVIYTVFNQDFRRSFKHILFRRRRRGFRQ
Sodium-dependent dopamine transporter, sequence (Q01959 whole entry): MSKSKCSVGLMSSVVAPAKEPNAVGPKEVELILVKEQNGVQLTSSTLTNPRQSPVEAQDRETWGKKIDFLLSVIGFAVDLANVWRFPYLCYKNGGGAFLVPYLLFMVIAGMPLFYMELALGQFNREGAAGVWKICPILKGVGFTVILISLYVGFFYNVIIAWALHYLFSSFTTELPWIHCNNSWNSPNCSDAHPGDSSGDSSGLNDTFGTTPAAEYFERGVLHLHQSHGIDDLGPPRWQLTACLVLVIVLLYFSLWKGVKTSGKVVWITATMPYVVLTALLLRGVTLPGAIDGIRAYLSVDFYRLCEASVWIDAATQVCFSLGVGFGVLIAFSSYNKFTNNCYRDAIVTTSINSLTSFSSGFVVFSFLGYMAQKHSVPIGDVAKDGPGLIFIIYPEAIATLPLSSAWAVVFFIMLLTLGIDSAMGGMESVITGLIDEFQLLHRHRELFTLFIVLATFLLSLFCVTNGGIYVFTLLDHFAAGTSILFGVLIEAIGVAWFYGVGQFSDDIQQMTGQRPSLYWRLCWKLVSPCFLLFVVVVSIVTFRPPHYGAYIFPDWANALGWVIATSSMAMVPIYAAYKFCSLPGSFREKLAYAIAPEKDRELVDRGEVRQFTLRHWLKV
D(1A) dopamine receptor, sequence (P21728 whole entry): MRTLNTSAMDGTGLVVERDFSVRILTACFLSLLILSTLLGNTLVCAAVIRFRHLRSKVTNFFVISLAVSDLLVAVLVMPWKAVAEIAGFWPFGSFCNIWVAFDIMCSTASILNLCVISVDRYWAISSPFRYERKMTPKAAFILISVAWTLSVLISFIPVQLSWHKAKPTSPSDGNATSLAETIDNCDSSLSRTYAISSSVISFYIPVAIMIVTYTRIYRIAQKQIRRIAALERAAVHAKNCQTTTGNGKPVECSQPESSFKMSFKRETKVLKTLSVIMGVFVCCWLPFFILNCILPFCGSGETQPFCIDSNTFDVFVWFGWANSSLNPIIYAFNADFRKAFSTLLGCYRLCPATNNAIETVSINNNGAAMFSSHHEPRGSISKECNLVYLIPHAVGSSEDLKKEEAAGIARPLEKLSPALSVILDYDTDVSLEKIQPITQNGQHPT

Compound: COc1cc2c(cc1OC(C)C)C[C@H]1c3c(cc(OC)c(OC)c3-2)CCN1C
- Ki [1]: 28 nM
- Ratio Ki (Homo sapiens [2]): 20
- Ki [3]: 563 nM
- Ki [4]: 750 nM
- Ratio Ki (Homo sapiens [5]): 27

Compound: COc1cc2c(cc1OCC1CC1)C[C@H]1c3c(cc(OC)c(OC)c3-2)CCN1C
- Ki [1]: 22 nM
- Ratio Ki (Homo sapiens [2]): 10
- Ki [3]: 224 nM
- Ki [4]: 582 nM

Compound: CCCCCOc1cc2c(cc1OC)-c1c(OC)c(OC)cc3c1[C@H](C2)N(C)CC3
- Ki [1]: 24 nM
- Ratio Ki (Homo sapiens [2]): 7
- Ki [3]: 179 nM
- Ki [4]: 239 nM
- Ratio Ki (Homo sapiens [5]): 10

Compound: COc1cc2c(cc1OC1CCCCC1)C[C@H]1c3c(cc(OC)c(OC)c3-2)CCN1C
- Ki [1]: 50 nM
- Ratio Ki (Homo sapiens [2]): 3
- Ki [3]: 163 nM
- Ki [4]: 570 nM
- Ratio Ki [6]: < 3
- Ratio Ki (Homo sapiens [5]): 11

Compound: COc1cc2c(cc1OCc1ccc(Br)cc1)C[C@H]1c3c(cc(OC)c(OC)c3-2)CCN1C
- Ki [1]: 54 nM
- Ratio Ki (Homo sapiens [2]): 2
- Ki [3]: 102 nM
- Ki [4]: 418 nM
- Ratio Ki [6]: 3
- Ratio Ki (Homo sapiens [5]): 8

Compound: CCOc1cc2c(cc1OC)-c1c(OC)c(OC)cc3c1[C@H](C2)N(C)CC3
- Ki [1]: 69 nM
- Ratio Ki (Homo sapiens [2]): 7
- Ki [3]: 506 nM
- Ki [4]: 818 nM
- Ratio Ki (Homo sapiens [5]): 12

Compound: COc1cc2c(cc1O)C[C@H]1c3c(cc(OC)c(OC)c3-2)CCN1C
- Ki [1]: 20 nM
- Ki (D(3) dopamine receptor): > 950 nM
- inhibition [7]: < 50%
- inhibition [8]: < 50%
- inhibition [9]: < 50%
- Ratio Ki (Homo sapiens [2]): 16
- Ki [3]: 314 nM
- Ki [10]: > 950 nM
- inhibition [11]: < 50%
- inhibition [12]: < 50%
- inhibition [13]: < 50%
- inhibition [14]: < 50%
- inhibition [15]: < 50%
- Ki [16]: 323 nM
- inhibition [17]: < 50%
- Ki [18]: > 950 nM
- inhibition [19]: < 50%
- inhibition [20]: < 50%
- inhibition (Rattus norvegicus [21]): < 50%
- Ki [22]: 566 nM
- inhibition (Rattus norvegicus [23]): < 50%
- Ki [24]: > 950 nM
- Ki [25]: 306 nM
- inhibition [26]: < 50%
- Ki [27]: > 950 nM
- inhibition [28]: < 50%
- inhibition [29]: < 50%
- Ki [30]: > 950 nM
- inhibition [31]: < 50%
- inhibition [32]: < 50%
- Ki [33]: > 950 nM
- inhibition [34]: < 50%
- inhibition [35]: < 50%
- inhibition (Sigma 2 receptor): < 50%
- inhibition [36]: < 50%
- Ki (D(1A) dopamine receptor): 373 nM
- inhibition [37]: < 50%
- Ki [38]: > 950 nM
- inhibition [39]: < 50%

Compound: COc1cc2c(cc1OC)-c1c(OC)c(OC)cc3c1[C@H](C2)N(C)CC3 [GLAUCINE]
- Ki [1]: 43 nM
- Ratio Ki (Homo sapiens [2]): 4
- Ki [3]: 171 nM
- Ki [4]: 966 nM
- Ratio Ki (Homo sapiens [5]): 22
